Results as given in US9796707B2, “Piperazine derivatives for treating disorders” (The University of Nottingham, priority 2014, dated 2017).

What was measured:
[1] = system: SRSF1 nuclear localisation in MDA-MB231 cells; experiment: SRSF1 localisation by immunofluorescence
[2] = mouse, in vivo
Description: Mice were treated for six days with 2 μg per eye SPHINX31 as eye drops, and ERG carried out using a Micron IV Ganzfield ERG system as recommended by the manufacturers instructions.
Scotopic ERG recordings were taken in dark adapted animals following stimulation with increasing intensities of green (FIGS. 20A, 20C, 20E, 20G) light (to activate M-cones and rods) or UV (FIGS. 20B, 20D, 20F, 20H) light (to activate S-cones and rods). […] ERG amplitude at different intensities of green (FIGS. 20C, 20E) or UV (FIGS. 20D, 20F) are shown for the A wave (FIGS. 20C, 20D) and B wave (FIGS. 20E, 20F).

[3] = Half life in human liver microsomes
From the text: We also tested the half life of these compounds when exposed to human liver microsomes.

[4] = system: SRSF1 nuclear localisation in PC3 prostate cancer cells; experiment: SRSF1 localisation by immunofluorescence
[5] = format: cell-based
From the text: To test whether compounds of Formula (I) are safe to administer to patients we began a basic safety test of these compounds in vitro.

[6] = system: choroidal neovascularisation; details: mouse CNV, eye drops, previously shown; cited from earlier work
[7] = Scleral permeability, modified Ussing chamber; format: in vitro ADME; details: rabbit
Description: Scleral permeability was measured using a modified Ussing chamber assembly in isotonic assay buffer (pH 7.4). Rabbit or porcine excised eye tissues were mounted in the chambers such that the episcleral side faced the donor chamber and the retinal side faced the receiver chamber. The chambers were filled with equal volumes of assay buffer, with (donor side) or without (receiver side) 1 μg/ml compound. After 4 or 24 hours tissue was removed from the chamber and the receiver side (“vitreous”) sampled. Tissue was dissected into sclera, choroid/RPE, and retina and homogenised.
After 0, 4 or 24 hours, the fluid from the bottom chamber (vitreous) and the retinal tissue was isolated and compounds purified by acetonitrile extraction and HPLC.

neovascular AMD = details: 0.5 mg monthly, at one year; cited from earlier work

In the case of `O=C(Nc1cc(C(F)(F)F)ccc1N1CCN(Cc2ccccn2)CC1)c1ccc(-c2ccncc2)o1` [Compound 12], the “solubility in water of salt forms” value (Solubility in water) is reported as “more freely soluble in water”, the SRSF1 localisation [1] is reported as “inhibited cellular localisation” and the “effect on scotopic or photopic activity” value [2] is reported as “No effect”. For the same molecule, the “Half life” value [3] was 1.025 h and the SRSF1 localisation [4] was “inhibited cellular localisation”.

In the case of `O=C(Nc1cc(C(F)(F)F)ccc1N1CCN(Cc2cccnc2)CC1)c1ccc(-c2ccncc2)o1` [Compound 13], the “solubility in water of salt forms” value (Solubility in water) is reported as “more freely soluble in water”.

With `O=C(Nc1cc(C(F)(F)F)ccc1N1CCN(Cc2ccncc2)CC1)c1ccc(-c2ccncc2)o1` [Compound 14] the “solubility in water of salt forms” value (Solubility in water) was “more freely soluble in water”.

In the case of `CN(C)CCN1CCN(c2ccc(C(F)(F)F)cc2NC(=O)c2ccc(-c3ccncc3)o2)CC1` [SPHINX7], the toxic doses [5] is reported as “greater than 10 μM”.

For `Cc1ccc(C(=O)Nc2cc(C(F)(F)F)ccc2N2CCOCC2)o1` [SPHINX], the “eye drop concentration of maximum effect” value [6] is given as 10 µg/mL.

In the case of `O=C(Nc1cc(C(F)(F)F)ccc1N1CCCCC1)c1ccncc1` [SRPIN340], the “eye drop concentration of maximum effect” value [6] is given as 10 µg/mL.

In the case of `Cc1ccc(Nc2nccc(N(C)c3ccc4c(C)n(C)nc4c3)n2)cc1S(N)(=O)=O` [pazopanib], the detection in retina ([7]; 4 hrs) is reported as “could not”, the “detection in vitreous (bottom chamber)” value ([7]; 4 hrs) is reported as “could not” and the “detection in vitreous (bottom chamber)” value ([7]; 24 hours) is reported as “detected”.

B1: Lucentis: novel humanized anti-VEGF antibody fragment (antibody, chains of the INN, looked up, V domains shown)
VH: EVQLVESGGGLVQPGGSLRLSCAASGYDFTHYGMNWVRQAPGKGLEWVGWINTYTGEPTYAADFKRRFTFSLDTSKSTAYLQMNSLRAEDTAVYYCAKYPYYYGTSHWYFDVWGQGTLVTVSS
VL: DIQLTQSPSSLSASVGDRVTITCSASQDISNYLNWYQQKPGKAPKVLIYFTSSLHSGVPSRFSGSGSGTDFTLTISSLQPEDFATYYCQQYSTVPWTFGQGTKVEIK
modifications: Fab
notes: novel humanized anti-VEGF antibody fragment
For B1, the “patients who maintained visual acuity (loss of <15 letters)” value (neovascular AMD) is listed as “approximately 95%” and the “patients with improved vision (gain of ≧15 letters)” value (neovascular AMD) is listed as no more than 40%.
